Patent US20190105367A1, “ANTIMICROBIAL 4-OXOQUINOLIZINES” (Emergent Product Development Gaithersburg Inc., priority 2011, published 2019)

Experiments:
[1] = tested on: GN56 Acinetobacter baumannii levofloxacin resistant clinical isolate; test: Chequerboard synergy with polymyxin B, FICI (Example 6); assay type: cell-based
From the text: (§1) A chequerboard technique was used to identify possible synergistic or antagonistic interactions between the 4-oxoquinolizines compounds, levofloxacin and polymyxin B. Levofloxacin was included as a control. […] Final dilutions were made in Mueller-Hinton broth, the specific test medium used for MIC determinations according to CLSI guidelines (CLSI. Methods for Dilution Antimicrobial Susceptibility Tests for Bacteria That Grow Aerobically; Approved Standard-Eighth Edition (2009). CLSI Document M07-A8. CLSI, Wayne, Pa. 19087-1898, USA.). The test medium used was a cation-adjusted Mueller-Hinton Broth II (Becton Dickinson UK Ltd., Oxford Science Park, Oxford, UK, OX4 4DQ).
(§2) The compounds 2, 33 and 35, as well as levofloxacin were tested in combination with polymyxin B on the following isolates: GN31 Acinetobacter baumannii—antibiotic susceptible clinical isolate, GN52 Acinetobacter baumannii—levofloxacin resistant clinical isolate, GN56 Acinetobacter baumannii—levofloxacin resistant clinical isolate, GN48 Klebsiella pneumoniae—NCTC 13443—NDM-1-metallo-β-lactamase and GN10 Pseudomonas aeruginosa—ATCC 27853—antibiotic susceptible reference isolate. All isolates are from the collection maintained at Quotient Bioresearch Ltd., Cambridge, UK.
(§3) The MIC values for the compounds and polymyxin B and levofloxacin were determined by broth microdilution following CLSI guidelines, and the MICs of agents in combination were determined as described by Pillai et. al (Pillai S K, Moellering R C Jr, Eliopoulis G M; Antimicrobial Combinations in Antibiotics in Laboratory Medicine 5th Edition (V. Lorian Ed) (2005) p 365-440). Initial MIC results were used to determine the microtiter plate patterns for the chequerboards. A suitable doubling dilution concentration range was selected such that the combination antibiotic range was at least two concentrations above and four concentrations below the MIC for each isolate. A fixed range of 0.008 to 8 mg/L was tested for polymyxin B except in the case of A. baumannii GN31 where a range of 0.004 to 4 mg/L was tested when in combination with the compounds 2, 33 and 35 as well as levofloxacin.
(§4) From the raw data, fractional inhibitory concentration indices (FICI) were determined for the compounds of the invention and levofloxacin together with polymyxin B for each isolate as follows:
(§5) FICX=concentration of the combination antibiotic in a particular row MIC of the combination drug alone
(§6) FICY=MIC of polymyxin B in combination[…]MIC of the polymyxin B alone
(§7) Additionally isobolograms were created to represent the same data visually. Here, the MIC of polymyxin B was plotted against every concentration of the combination antibiotic up to the MIC.

[2] = tested on: GN52 Acinetobacter baumannii levofloxacin resistant clinical isolate; test: as above; assay type: cell-based
From the text: as §1, §2, §3, §4, §5, §6, §7

[3] = in combination with polymyxin B
[4] = polymyxin B with the named antibiotic

In the case of `Cc1c(-c2ccc(N)nc2)ccn2c(=O)c(C(=O)O)cc(C3CC3)c12` [Compound 33, 8-(6-amino-3-pyridyl)-1-cyclopropyl-9-methyl-4-oxo-quinolizine-3-carboxylic acid], the “Combination drug MIC alone” value [1] is reported as 32 mg/L, the FICx [1] is reported as 0.06 and the FICy [1] is reported as 0.24. For the same molecule, the FICI ([1]; combination with polymyxin B) was 0.30, the Synergy ([1]; combination with polymyxin B) was “Synergy (Synergy (FICI <0.5))” and the “Combination drug concentration in combination” value [1, 3] was 2 mg/L. The “Polymyxin B MIC in combination” value [1, 4] was 0.12 mg/L, the “Combination drug MIC alone” value [2] was 4 mg/L and the FICx [2] was 0.25. The FICy [2] was 0.24, the FICI ([2]; combination with polymyxin B) was 0.49 and the Synergy ([2]; combination with polymyxin B) was “Synergy (Synergy (FICI <0.5))”. For the same molecule, the “Combination drug concentration in combination” value [2, 3] was 1 mg/L and the “Polymyxin B MIC in combination” value [2, 4] was 0.12 mg/L.
